In patent publication US20250026721A1, “COMPOUNDS AND METHODS FOR MODULATING RAS-PI3K” (Vividion Therapeutics, Inc., priority 2023, published 2025):

What was measured:
PIK3CA = molecular target: T1, PIK3CA (Homo sapiens, UniProt P42336); assay: In vitro ELISA target engagement assay for PIK3CA in Jurkat cellular lysate (competition with PIK3CA Biotin Probe); format: binding; conditions: 1 hour at rt, then 500 nM PIK3CA Biotin Probe, read-out: Elisa Target Engagement Assay (TE50)
T1 construct: endogenous in cells; host or cells: Jurkat cell lysate
T1 sequence (P42336 whole entry): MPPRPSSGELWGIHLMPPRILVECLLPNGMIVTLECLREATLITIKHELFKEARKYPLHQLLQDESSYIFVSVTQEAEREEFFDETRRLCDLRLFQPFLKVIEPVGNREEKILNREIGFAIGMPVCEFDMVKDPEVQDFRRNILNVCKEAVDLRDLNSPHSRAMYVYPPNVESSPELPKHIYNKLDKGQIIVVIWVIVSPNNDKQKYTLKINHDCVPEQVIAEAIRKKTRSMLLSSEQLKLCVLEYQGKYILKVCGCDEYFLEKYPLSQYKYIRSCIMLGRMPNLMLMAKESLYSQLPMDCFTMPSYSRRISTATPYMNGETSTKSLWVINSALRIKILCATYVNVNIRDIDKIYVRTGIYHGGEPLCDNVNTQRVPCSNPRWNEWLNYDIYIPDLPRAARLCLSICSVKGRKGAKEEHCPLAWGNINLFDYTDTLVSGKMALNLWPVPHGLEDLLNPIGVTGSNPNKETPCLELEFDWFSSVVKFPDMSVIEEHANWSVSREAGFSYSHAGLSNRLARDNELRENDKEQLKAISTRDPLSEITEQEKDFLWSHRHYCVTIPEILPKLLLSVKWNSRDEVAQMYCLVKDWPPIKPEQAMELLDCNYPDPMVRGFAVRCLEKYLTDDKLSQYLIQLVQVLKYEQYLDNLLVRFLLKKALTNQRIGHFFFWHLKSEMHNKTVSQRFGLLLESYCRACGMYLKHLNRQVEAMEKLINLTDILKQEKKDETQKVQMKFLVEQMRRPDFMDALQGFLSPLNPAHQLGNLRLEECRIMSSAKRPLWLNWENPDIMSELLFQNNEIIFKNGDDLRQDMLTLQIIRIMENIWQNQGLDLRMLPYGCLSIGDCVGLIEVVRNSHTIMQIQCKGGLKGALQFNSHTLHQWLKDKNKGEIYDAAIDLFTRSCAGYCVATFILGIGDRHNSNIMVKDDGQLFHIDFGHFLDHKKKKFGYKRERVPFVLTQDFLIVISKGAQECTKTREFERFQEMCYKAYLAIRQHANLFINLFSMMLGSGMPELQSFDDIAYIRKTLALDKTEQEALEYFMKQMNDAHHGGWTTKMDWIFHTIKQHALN
T1 sequence (P27986 whole entry partner): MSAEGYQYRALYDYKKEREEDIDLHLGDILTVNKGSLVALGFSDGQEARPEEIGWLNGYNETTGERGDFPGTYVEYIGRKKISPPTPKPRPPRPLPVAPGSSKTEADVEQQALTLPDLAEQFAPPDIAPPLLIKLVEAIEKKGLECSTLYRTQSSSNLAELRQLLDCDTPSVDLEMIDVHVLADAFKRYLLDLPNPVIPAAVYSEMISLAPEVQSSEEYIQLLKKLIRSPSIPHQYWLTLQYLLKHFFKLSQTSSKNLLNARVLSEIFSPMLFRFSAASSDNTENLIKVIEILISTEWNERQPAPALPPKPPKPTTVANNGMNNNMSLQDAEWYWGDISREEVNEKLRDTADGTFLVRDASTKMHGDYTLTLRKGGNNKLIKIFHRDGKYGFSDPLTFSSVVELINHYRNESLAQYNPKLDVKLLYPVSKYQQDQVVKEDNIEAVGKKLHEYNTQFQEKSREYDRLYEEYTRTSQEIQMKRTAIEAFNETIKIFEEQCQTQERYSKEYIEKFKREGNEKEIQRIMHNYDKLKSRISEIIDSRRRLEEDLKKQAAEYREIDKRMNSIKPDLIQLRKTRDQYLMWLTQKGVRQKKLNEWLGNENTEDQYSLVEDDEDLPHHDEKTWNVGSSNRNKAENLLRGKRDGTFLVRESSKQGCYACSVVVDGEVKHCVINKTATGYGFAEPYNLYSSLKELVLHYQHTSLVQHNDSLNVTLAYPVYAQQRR
Procedure, shortened: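 Competition format in Jurkat lysate: compound (serial dilutions, top 200 μM) for 1 h at rt, then 500 nM final biotinylated PIK3CA probe for 1 h at rt. Sandwich ELISA with capture antibody and Neutravidin-HRP luminescence read-out measured probe-labelled PIK3CA, giving TE50.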

[1] = test system: pAKT(S473) in FaDu cell line; assay: In vitro Phospho-AKT(S473) HTRF analysis in FaDu cells; format: cell-based; conditions: Homo sapiens, 0.5 h; for IC50: FaDu cells, 30 minutes at 37° C.; for Emax: FaDu, read-out: FaDu pAKT Imax % control
Experimental: Example 5. In Vitro Phosgho-AKT(S473) Analysis
Functional activity of the compounds to inhibit pAKT were assessed in FaDu or H358 cell lines as indicated below.
• Complete Media • FBS, Corning catalog #35-010-CV • Anti-Anti, Gibco catalog #15240-062 • 96 well plate, Corning catalog #3610 • TrypLE, Gibco catalog #12604013 • Phospho-AKT(S473) HTRF kit, Cisbio catalog #64AKSPET
Cells were detached from the tissue culture flask with TrypLE. The cells were pelleted at 500×g for 5 min, TrypLe was removed and then resuspended in the necessary volume of media+1% FBS to give the appropriate cell density (17,500 cells/mL for FaDu; 20,000 cells/mL for H358). 100 μL of cell suspension/well was dispensed into the 96-well plate while keeping the outer wells of the plate free of cells and filled with PBS to prevent evaporation of interior wells. The plate was incubated at 37° C. and allowed to adhere overnight. The cells were treated with a dose response of compound and incubated at 37° C. for 30 minutes. The cells were then processed and pAKT(S473) levels were assessed following the specifications of the Cisbio HTRF kit.

| SMILES | IC50 (PIK3CA) | IC50 [1] | Emax [1] |
| --- | --- | --- | --- |
| C[C@H](/C=C\S(C)(=O)=O)NC(=O)[C@]1(F)CCN(S(=O)(=O)c2ccc(OC(F)(F)F)cc2-c2ccccc2Cl)[C@H](C)C1 [Compound 250, (2R,4S)-1-((2′-chloro-5-(trifluoromethoxy)-[1,1′-biphenyl]-2-yl)sulfonyl)-4-fluoro-2-methyl-N-((R,Z)-4-(methylsulfonyl)but-3-en-2-yl)piperidine-4-carboxamide] | 350 nM | 1640 nM | 96.8% |
| CCOc1ccc(S(=O)(=O)N2CC[C@@](F)(C(=O)N[C@H](C)/C=C\S(C)(=O)=O)C[C@H]2C)c(-c2ccccc2Cl)c1 [Compound 299, (2R,4S)-1-((2′-chloro-5-ethoxy-[1,1′-biphenyl]-2-yl)sulfonyl)-4-fluoro-2-methyl-N-((R,Z)-4-(methylsulfonyl)but-3-en-2-yl)piperidine-4-carboxamide] | 210 nM | 146 nM | 99.6% |
| C[C@@H](NC(=O)C1(F)CCN(S(=O)(=O)c2ccc(Br)cc2-c2ccccc2Cl)CC1)C1=CS(=O)(=O)C1 (single isomer, unassigned) [Compound 234, (*R)-1-((5-bromo-2′-chloro-[1,1′-biphenyl]-2-yl)sulfonyl)-N-(1-(1,1-dioxido-2H-thiet-3-yl)ethyl)-4-fluoropiperidine-4-carboxamide] | 140 nM | 100 nM |  |
| O=C(/C=C\CNC(=O)C1(F)CCN(S(=O)(=O)c2ccc(C(F)(F)F)cc2-c2ccccc2Cl)CC1)N1CC(F)(F)C1 [Compound 284, (Z)-1-((2′-chloro-5-(trifluoromethyl)-[1,1′-biphenyl]-2-yl)sulfonyl)-N-(4-(3,3-difluoroazetidin-1-yl)-4-oxobut-2-en-1-yl)-4-fluoropiperidine-4-carboxamide] | 61 nM | 67.4 nM |  |
| C[C@H](/C=C/C(=O)N1CC(F)(F)C1)NC(=O)C1(F)CCN(S(=O)(=O)c2cnc(C(F)(F)F)cc2-c2ccccc2Cl)CC1 [Compound 213, (R,E)-1-((4-(2-chlorophenyl)-6-(trifluoromethyl)pyridin-3-yl)sulfonyl)-N-(5-(3,3-difluoroazetidin-1-yl)-5-oxopent-3-en-2-yl)-4-fluoropiperidine-4-carboxamide] | 230 nM | 291 nM | 90.8% |
| C[C@H](/C=C/C(=O)N1CC(F)(F)C1)NC(=O)[C@]1(F)CCN(S(=O)(=O)c2ccc(Br)cc2-c2ccccc2Cl)[C@H](C)C1 [Compound 153, (2R,4S)-1-((5-bromo-2′-chloro-[1,1′-biphenyl]-2-yl)sulfonyl)-N-((R,E)-5-(3,3-difluoroazetidin-1-yl)-5-oxopent-3-en-2-yl)-4-fluoro-2-methylpiperidine-4-carboxamide] | 183 nM | 204 nM | 104% |
| CS(=O)(=O)/C=C\[C@H](CC(F)(F)F)NC(=O)C1(F)CCN(S(=O)(=O)c2ccc(Br)cc2-c2ccccc2Cl)CC1 (single isomer, unassigned) [Compound 240, (*S,Z)-1-((5-bromo-2′-chloro-[1,1′-biphenyl]-2-yl)sulfonyl)-4-fluoro-N-(5,5,5-trifluoro-1-(methylsulfonyl)pent-1-en-3-yl)piperidine-4-carboxamide] | 120 nM | 437 nM |  |
| C[C@H](/C=C\S(=O)(=O)[C@@H]1CCN(C)C1)NC(=O)C1(F)CCN(S(=O)(=O)c2ccc(Br)cc2-c2ccccc2Cl)CC1 (single isomer, unassigned) [Compound 237, 1-((5-bromo-2′-chloro-[1,1′-biphenyl]-2-yl)sulfonyl)-4-fluoro-N-((R,Z)-4-(((*R)-1-methylpyrrolidin-3-yl)sulfonyl)but-3-en-2-yl)piperidine-4-carboxamide] | 55 nM | 73.6 nM |  |
| C[C@H](/C=C/C(=O)N1CC(F)(F)C1)NC(=O)[C@@]1(F)CCCN(C(=O)c2ccc(C(F)(F)F)cc2-c2c(F)cccc2Cl)CC1 [Compound 245, (4R)-1-(2′-chloro-6′-fluoro-5-(trifluoromethyl)-[1,1′-biphenyl]-2-carbonyl)-N-((R,E)-5-(3,3-difluoroazetidin-1-yl)-5-oxopent-3-en-2-yl)-4-fluoroazepane-4-carboxamide] | 620 nM | 922 nM | 86.2% |
| C[C@H](/C=C\S(C)(=O)=O)NC(=O)[C@@]1(F)CCCN(C(=O)[C@@]2(C)CN(CC(F)(F)F)C[C@H]2c2ccccc2Cl)CC1 [Compound 254, (R)-1-((3R,4R)-4-(2-chlorophenyl)-3-methyl-1-(2,2,2-trifluoroethyl)pyrrolidine-3-carbonyl)-4-fluoro-N-((R,Z)-4-(methylsulfonyl)but-3-en-2-yl)azepane-4-carboxamide] | 880 nM | 911 nM | 92.5% |
| C[C@H](/C=C\S(C)(=O)=O)NC(=O)[C@@]1(F)CCCN(C(=O)c2ccc(C(F)(F)F)cc2-c2ccccc2Cl)CC1 [Compound 242, (R)-1-(2′-chloro-5-(trifluoromethyl)-[1,1′-biphenyl]-2-carbonyl)-4-fluoro-N-((R,Z)-4-(methylsulfonyl)but-3-en-2-yl)azepane-4-carboxamide] | 72 nM | 138 nM |  |
| Cc1ccc(Cl)c([C@@H]2CN(CC(F)(F)F)C[C@@H]2C(=O)N2CCC[C@](F)(C(=O)N[C@H](C)/C=C\S(C)(=O)=O)CC2)c1 (single isomer, unassigned) [Compound 170, (R)-1-((3*R,4*R)-4-(2-chloro-5-methylphenyl)-1-(2,2,2-trifluoroethyl)pyrrolidine-3-carbonyl)-4-fluoro-N-((R,Z)-4-(methylsulfonyl)but-3-en-2-yl)azepane-4-carboxamide] | 760 nM | 484 nM | 83.2% |
| O=C([C@H]1CN(CC(F)(F)F)C[C@H]1c1ccccc1Cl)N1CCC(F)(C(=O)N[C@@H]2C=CS(=O)(=O)C2)CC1 [Compound 164, 1-((3R,4R)-4-(2-chlorophenyl)-1-(2,2,2-trifluoroethyl)pyrrolidine-3-carbonyl)-N—((R)-1,1-dioxido-2,3-dihydrothiophen-3-yl)-4-fluoropiperidine-4-carboxamide] | 370 nM | 834 nM | 103% |
| [2H]C([2H])([2H])Oc1ccc(S(=O)(=O)N2CC[C@@](F)(C(=O)N[C@H](C)/C=C/C(=O)N3CC(F)(F)C3)C[C@H]2C)c(-c2ccccc2Cl)c1 [Compound 300, (2R,4S)-1-((2′-chloro-5-(methoxy-d3)-[1,1′-biphenyl]-2-yl)sulfonyl)-N-((R,E)-5-(3,3-difluoroazetidin-1-yl)-5-oxopent-3-en-2-yl)-4-fluoro-2-methylpiperidine-4-carboxamide] | 310 nM | 418 nM | 94.2% |
| C[C@H](/C=C\S(C)(=O)=O)NC(=O)[C@@]1(F)CCCN(C(=O)[C@H]2CN(C3CC3)C[C@H]2c2ccccc2Cl)CC1 [Compound 303, (R)-1-((3R,4R)-4-(2-chlorophenyl)-1-cyclopropylpyrrolidine-3-carbonyl)-4-fluoro-N-((R,Z)-4-(methylsulfonyl)but-3-en-2-yl)azepane-4-carboxamide] | 557 nM | 243 nM | 102% |
| COC[C@@H](/C=C\S(C)(=O)=O)NC(=O)C1(F)CCN(S(=O)(=O)c2ccc(OC)cc2-c2ccccc2Cl)CC1 [Compound 248, (R,Z)-1-((2′-chloro-5-methoxy-[1,1′-biphenyl]-2-yl)sulfonyl)-4-fluoro-N-(1-methoxy-4-(methylsulfonyl)but-3-en-2-yl)piperidine-4-carboxamide] | 170 nM | 557 nM |  |
